Patent US20020193425A1, “Cancer chemopreventative compounds and compositions and methods of treating cancers” (priority 2001, published 2002)
Like-named read-outs stand apart in the source and are kept apart here.

Assays:
[1] = test system: HL-60 (human promyelocytic) cells; experiment: HL-60 cell differentiation of quassinoids, NBT reduction; assay type: cell-based
Method: (§1) Induction of differentiation was determined by the ability of treated cells to produce superoxide anions (nitroblue tetrazolium (NBT)-reduction), a functional marker of mature macrophages or granulocytes. Proliferation capacity is equivalent to cell growth and was measured by incorporation of [3H]thymidine into DNA over a period of 18 h, and cytotoxic activity was evaluated by the loss of membrane integrity as shown by trypan blue exclusion. […] Although members of the brusatol and glaucarubolone series were active, when comparing members of both series that varied only in the positioning of the epoxymethano bridge, great differences were noted, as shown with yadianzolide C (5) and glaucarubolone (24), and analogues 4 (brusatol series) and 32 (glaucarubolone series).
(§2) HL-60 (human promyelocytic) cells were tested using a 4-day incubation protocol. In brief, cells in log phase (approximately 10^6 cells/mL) were diluted to […] and preincubated overnight (18 h) in 24-well plates to allow cell-growth recovery. Then, samples dissolved in DMSO were added, keeping the final DMSO concentration at 0.1% (v/v). Control cultures were treated with the same concentration of DMSO. After 4 days of incubation, the cells were analyzed to determine the percentage of cells undergoing maturation as determined by NBT reduction. Concomitantly, the effect on viability and proliferation of HL-60 cells was determined. In each experiment, 1α, 25-dihydroxyvitamin D3 (EC50=0.01 μM) and brusatol (EC50=0.07 μM) were used as reference controls. EC50 and IC50 values were calculated using 5-7 test concentrations (in duplicate), and consistent results were obtained, indicating the data reported for the related quassinoids are reliable.
(1) Nitroblue Tetrazolium (NBT) Reduction. Evaluation of NBT reduction was used to assess the ability of sample-treated HL-60 cells to produce superoxide when challenged with 12-O-tetradecanoylphorbol 13-acetate (TPA). A 1:1 v/v) mixture of a cell suspension (10^6 cells) and TPA/NBT solution (2 mg/mL NBT and 1 μg/mL TPA in phosphate buffered solution) was incubated for 1 h at 37° C. Positive cells reduce NBT yielding intracellular black-blue formazan deposits, which were quantified by microscopic examination of >200 cells. Results were expressed as a percentage of positive cells.

[2] = test system: human promyelocytic leukemia (HL-60) cells; conditions: cited from earlier work
[3] = HL-60 cytotoxicity of quassinoids, trypan blue exclusion; assay type: cell-based, human; conditions: human, HL-60 cells; HL-60; 4-day incubation; trypan blue exclusion; read-out: cytotoxicity (IC50)
Method: as §1, §2
(§3) (2) Cytotoxicity. Since loss of membrane integrity is an early feature of necrotic cells and a late feature of apoptotic cells, trypan blue, a […] blue dye, was used to stain cells with compromised plasma membranes, while leaving intact cells unstained. Cells […] of trypan blue (0.2% w/v in PBS), incubated for at least 5 min at room temperature, and counted using a hematocytometer. Viability percentages were calculated with duplicate samples.

[4] = test system: HL-60 (human promyelocytic) cells; experiment: HL-60 cell proliferation assay of quassinoids, [3H]thymidine incorporation; assay type: cell-based; conditions: for IC50: 4-day incubation, [3H]thymidine incorporation, read-out: inhibition of proliferation (IC50)
Method: as §1, §2
(3) Cell Proliferation Assay. […] Cells were then collected on glass fiber filters (90×120 mm; Wallac, Turku, Finland) using a TOMTEC Harvester 96®.

[5] = test system: DMBA-induced preneoplastic lesion formation in mouse mammary organ culture; experiment: Inhibition of DMBA-induced preneoplastic lesion formation in mouse mammary organ culture (MMOC); assay type: cell-based; conditions: for % inhibition of DMBA-induced preneoplastic lesion formation: quassinoid (2 μM), in comparison with a DMBA control
Method: The identification of potential inhibitors of DMBA-induced preneoplastic lesion formation in mammary organ culture has been described previously. Briefly, four-week old BALB/c female mice (Charles River) were pretreated for nine days with 1 μg estradiol and 1 mg progesterone. The thoracic pair of mammary glands was dissected on silk and incubated with growth-promoting hormones in the presence of test compounds (2 μM) for 10 days. DMBA ([…]) was included in the medium (containing […]) for 24 hours on the third day of culture to induce preneoplastic mammary lesions. Following 10 days of growth promoting phase, all hormones except insulin were withdrawn and the glands were allowed to regress to lobuloalveolar structures during a 14-day incubation period. Glands then were fixed in 10% buffered formalin and stained with alum carmine. Incidence of lesion formation (percentage of glands per group with mammary lesions) was recorded, and percent inhibition was calculated by comparison with the DMBA control group that was not treated with test sample. Active samples induce 60% inhibition, based on historical controls.

[6] = test system: HL-60 (human promyelocytic) cells; experiment: HL-60 cytotoxicity of quassinoids, trypan blue exclusion; assay type: cell-based; conditions: HL-60; 4-day incubation; trypan blue exclusion
Method: as §1, §2, §3

[7] = HL-60, 4-day incubation, NBT-reduction, read-out: induction of differentiation (EC50)
[8] = Homo sapiens, HL-60, 96 h, read-out: induction of differentiation (EC50, μM)

Molecule	EC50 [1, 7]	IC50 [6]	IC50 [4]	further results
C=C1/C(=C\C=C2/CCC[C@]3(C)[C@@H]([C@H](C)CCCC(C)(C)O)CC[C@@H]23)C[C@@H](O)C[C@@H]1O [1α, 25-dihydroxyvitamin D3, reference compound]	0.01 µM	–	–	–
C[C@@]1(CO)[C@H](O)CC[C@@]2(C)[C@H]1CC[C@H]1C[C@@H]3C[C@@]12CC[C@]3(O)CO [aphidicolin, reference compound]	–	–	–	maturation of HL-60 cells ([1]; data not shown): incapable of inducing maturation
COc1cc([C@H]2Oc3c(OC)cc4ccc(=O)oc4c3O[C@@H]2CO)ccc1O [cleomiscosin A]	–	–	–	activity in the HL-60 test system [2]: inactive
CC[C@@](C)(OC(C)=O)C(=O)O[C@H]1C(=O)O[C@@H]2C[C@H]3C(C)=CC(=O)[C@@H](O)[C@]3(C)[C@H]3[C@@H](O)[C@H](O)[C@@]4(C)OC[C@]32[C@@H]14 [compound 3, quassimarin]	–	–	–	EC50 [1, 8]: 0.09 ± 0.001 µM; IC50 at 4 days [3]: 130 ± 8 nM; IC50 ([4]; Homo sapiens): 60 ± 5 nM; selectivity index ([4]; ratio of cytotoxic IC50 over antiproliferative IC50): 2.2 ± 0.5
CC[C@@H](C)C(=O)O[C@H]1C(=O)O[C@@H]2C[C@H]3C(C)=CC(=O)[C@@H](O)[C@]3(C)[C@H]3[C@@H](O)[C@H](O)[C@@]4(C)OC[C@]32[C@@H]14 [compound 4, simalikalactone D]	–	–	–	EC50 [1, 8]: > 0.2 µM; IC50 at 4 days [3]: 200 ± 40 nM; IC50 ([4]; Homo sapiens): > 200 nM
CC[C@@](O)(CC(=O)O[C@@H]1C(=O)O[C@@H]2C[C@@H]3C(C)=CC(=O)[C@H](O)[C@]3(C)[C@H]3[C@]4(O)OC[C@]32[C@@H]1[C@@H](C)[C@H]4O)C(C)C [compound 10, Peninsularinone]	0.019 ± 0.0004 µM	13 ± 1 nM	9 ± 1 nM	activity in the MMOC model ([5]; at concentrations as high as 2 mM): inactive; % inhibition of DMBA-induced preneoplastic lesion formation [5]: 44%
CC1=CC(=O)[C@@H](O)[C@]2(C)[C@H]3[C@]4(O)OC[C@]35[C@H]([C@@H](C)[C@H]4O)[C@@H](O)C(=O)O[C@@H]5C[C@@H]12 [compound 24, glaucarubolone]	~1.3 µM	1300 ± 200 nM	400 ± 30 nM	–
CC[C@](C)(O)C(=O)O[C@H]1C(=O)O[C@@H]2C[C@H]3C(C)=CC(=O)[C@@H](O)[C@]3(C)[C@H]3[C@@]4(O)OC[C@]32[C@@H]1[C@@H](C)[C@H]4O [compound 25, glaucarubinone]	1.8 ± 0.09 µM	1000 ± 100 nM	500 ± 90 nM	–
CC1=CC(=O)[C@@H](O)[C@]2(C)[C@H]3[C@@]4(O)OC[C@@]35[C@@H](C[C@@H]12)OC(=O)C[C@H]5[C@@H](C)[C@H]4O [compound 26, chaparrinone]	~2.4 µM	5000 ± 300 nM	1200 ± 200 nM	% inhibition of DMBA-induced preneoplastic lesion formation [5]: 25%
bruceoside B	–	–	–	activity in the HL-60 test system [2]: inactive
samaderin B [compound 48]	1 ± 0.02 µM	> 2000 nM	400 ± 50 nM	% inhibition of DMBA-induced preneoplastic lesion formation [5]: 0%
yadanziolide C [compound 5]	10 ± 1.5 µM	> 10000 nM	1500 ± 80 nM	–
